{"source": "ChEMBL document CHEMBL4813917", "about": "“2-((1-Phenyl-1H-1,2,3-triazol-4-yl)methyl)-2-azabicyclo[3.2.1]octan-3-one derivatives: Simplification and modification of aconitine scaffold for the discovery of novel anticancer agents” (Eur J Med Chem, 2021)", "key": {"PANC-1": {"test_system": "PANC-1", "assay": "Antiproliferative activity against human PANC-1 cells assessed as inhibition of cell proliferation measured after 24 hrs by MTT assay", "assay_type": "functional, cell-based", "conditions": "PANC-1, 24 h"}, "[1]": {"molecular_target": "Heat shock protein HSP 90-alpha (Homo sapiens, UniProt P07900)", "assay": "Inhibition of recombinant human N terminal his-tagged HSP90 alpha (1 to 732 residues) expressed in Escherichia coli measured after 60 mins by Flourescence polarization assay"}, "LoVo [2]": {"test_system": "LoVo", "assay": "Induction of apoptosis in human LoVo cells assessed as necrotic cells at 20 nM measured after 24 hrs by Annexin V/PI staining based flow cytometry method (reference value: 1.3%)", "assay_type": "functional"}, "LoVo [3]": {"test_system": "LoVo", "assay": "Induction of apoptosis in human LoVo cells assessed as late apoptotic cells at 20 nM measured after 24 hrs by Annexin V/PI staining based flow cytometry method (reference value: 1.6%)", "assay_type": "functional"}, "[4]": {"assay": "Cytotoxicity against human GES1 cells assessed as reduction in cell viability measured after 24 hrs by MTT assay", "assay_type": "cell-based"}, "[5]": {"assay": "Cytotoxicity against human IOSE80 cells assessed as reduction in cell viability measured after 24 hrs by MTT assay", "assay_type": "cell-based"}, "SW-620 [6]": {"test_system": "SW-620", "assay": "Antitumour activity against human SW-620 cells xenografted in Balb/c mouse assessed as decrease in Ki67 expression in tumour at 5 mg/kg, ip measured after 21 days immunochemical staining method", "assay_type": "functional, organism-based", "conditions": "time 21.0 day"}, "SW-620 [7]": {"test_system": "SW-620", "assay": "Induction of apoptosis in human SW-620 cells assessed as early apoptotic cells at 40 nM measured after 24 hrs by Annexin V/PI staining based flow cytometry method (reference value: 1.7%)", "assay_type": "functional"}, "SW-620 [8]": {"test_system": "SW-620", "assay": "Induction of apoptosis in human SW-620 cells assessed as increase in Bax levels at 20 to 80 nM measured after 24 hrs by Western blot assay", "assay_type": "functional, cell-based", "conditions": "dose 20-80 nM"}, "SW-620 [9]": {"test_system": "SW-620", "assay": "Induction of apoptosis in human SW-620 cells assessed as early apoptotic cells at 20 nM measured after 24 hrs by Annexin V/PI staining based flow cytometry method (reference value: 1.7%)", "assay_type": "functional"}, "SW-620 [10]": {"test_system": "SW-620", "assay": "Induction of apoptosis in human SW-620 cells assessed as viable cells at 20 nM measured after 24 hrs by Annexin V/PI staining based flow cytometry method (reference value: 94%)", "assay_type": "functional", "conditions": "read-out: Activity"}, "[11]": {"assay": "Cytotoxicity against human NCM460 cells assessed as reduction in cell viability measured after 24 hrs by MTT assay", "assay_type": "cell-based"}, "SW-620 [12]": {"test_system": "SW-620", "assay": "Induction of apoptosis in human SW-620 cells assessed as necrotic cells at 20 nM measured after 24 hrs by Annexin V/PI staining based flow cytometry method (reference value: 3%)", "assay_type": "functional"}, "SW-620 [13]": {"test_system": "SW-620", "assay": "Induction of apoptosis in human SW-620 cells assessed as viable cells at 40 nM measured after 24 hrs by Annexin V/PI staining based flow cytometry method (reference value: 94%)", "assay_type": "functional", "conditions": "read-out: Activity"}, "SW-620 [14]": {"test_system": "SW-620", "assay": "Induction of apoptosis in human SW-620 cells assessed as late apoptotic cells at 40 nM measured after 24 hrs by Annexin V/PI staining based flow cytometry method (reference value: 1.3%)", "assay_type": "functional"}, "SW-620 [15]": {"test_system": "SW-620", "assay": "Induction of apoptosis in human SW-620 cells assessed as necrotic cells at 40 nM measured after 24 hrs by Annexin V/PI staining based flow cytometry method (reference value: 3%)", "assay_type": "functional"}}, "note": "The source made the active and inactive calls. No cut-off for these calls is given here."}
{"smiles": "CC1(C)[C@H]2CC[C@]1(C)N(Cc1cn(-c3cccc(Br)c3)nn1)C(=O)C2", "values": [{"measurement": "IC50", "setting": "PANC-1", "value": 0.09, "unit": "µM"}, {"measurement": "IC50", "setting": "[1]", "value": 0.00071, "unit": "µM"}, {"measurement": "Activity", "setting": "LoVo [2]", "value": 1.9, "unit": "%"}, {"measurement": "Activity", "setting": "LoVo [3]", "value": 3.1, "unit": "%"}, {"measurement": "CC50 at 24 h", "setting": "[4]", "value": 9.93, "unit": "µM"}, {"measurement": "CC50 at 24 h", "setting": "[5]", "value": 9.55, "unit": "µM"}, {"measurement": "Activity", "setting": "SW-620 [6]", "value": "Active"}, {"measurement": "Activity", "setting": "SW-620 [7]", "value": 8.1, "unit": "%"}, {"measurement": "Activity", "setting": "SW-620 [8]", "value": "Active"}, {"measurement": "Activity", "setting": "SW-620 [9]", "value": 5.1, "unit": "%"}, {"measurement": "viability at 0.02 µM", "setting": "SW-620 [10]", "value": 83.9, "unit": "%"}, {"measurement": "CC50 at 24 h", "setting": "[11]", "value": 14.6, "unit": "µM"}, {"measurement": "Activity", "setting": "SW-620 [12]", "value": 2.5, "unit": "%"}, {"measurement": "viability at 0.04 µM", "setting": "SW-620 [13]", "value": 75.5, "unit": "%"}, {"measurement": "Activity", "setting": "SW-620 [14]", "value": 15.1, "unit": "%"}, {"measurement": "Activity", "setting": "SW-620 [15]", "value": 1.3, "unit": "%"}]}
